# Data as given in patent US20100010078A1, “METHODS OF TREATING ANDROGEN DEPENDENT PROSTATE CANCER BY ADMINISTERING AN ACTIVE PHARMACEUTICAL INGREDIENT BEING FISETIN, 3,3',4',7-TETRAHYDROXYFLAVONE OR A DERIVATIVE THEREOF, IN AN ORAL, TRANSDERMAL OR TOPICAL DOSAGE FORM” (priority 2008, published 2010).
# Like-named read-outs stand apart in the source and are kept apart here.
# Columns and labels:
# [1] = test system: LNCaP cells; experiment: Apoptosis by Cell Death Detection ELISAPLUS; format: cell-based, human; settings: 48 h
# Method: Apoptosis by ELISA. Following treatment of LNCaP cells with fisetin (10-60 μM; 48 h), the extent of apoptosis was determined by Cell Death Detection ELISA^PLUS assay, according to the manufacturer's protocol. The whole cell lysate (40 μg of total protein) was added to the lysis buffer and pipetted on a streptavidin-coated 96-well microtiter plate to which the immunoreagent mix was added and incubated for 2 h at room temperature, with continuous shaking at 500 rpm. The wells were then washed with washing buffer, the substrate solution added, the color developed (10-20 min) was read at 405 nm against the blank, reference wavelength of 490 nm. The enrichment factor (total amount of apoptosis) was calculated by dividing the absorbance of the sample (A405 nm) by the absorbance of the controls without treatment ([…]).
# [2] = test system: WAF1/p21 and KIP1/p27; experiment: Western blot, WAF1/p21 and KIP1/p27 in LNCaP cells; format: cell-based, human; settings: fisetin 10-60 μM, 48 h
# Method: (§1) Protein extraction and western blotting. Following the treatment of LNCaP cells with fisetin (10-60 μM; 48 h), the media was aspirated, the cells were washed with cold PBS (pH 7.4), and ice-cold lysis buffer (50 mM Tris-HCl, 150 mM NaCl, 1 mM EGTA, 1 mM EDTA, 20 mM NaF, 100 mM Na3VO4, 0.5% NP-40, 1% Triton X-100, 1 mM PMSF (pH 7.4)) with freshly added protease inhibitor cocktail (Protease Inhibitor Cocktail Set III, Calbiochem, La Jolla, Calif.) over ice for 30 min. The cells were scraped and the lysate was collected in a microfuge tube and passed through a needle to break up the cell aggregates. […]
# (§2) For western blotting, 30-50 μg protein was resolved over 8-12% polyacrylamide gels and transferred to a nitrocellulose membrane. The blot was blocked in blocking buffer (5% nonfat dry milk/1% Tween 20; in 20 mM TBS, pH 7.6) for 1 hr at room temperature, incubated with appropriate monoclonal or polyclonal primary antibody in blocking buffer for 1.5 h to overnight at 4° C., followed by incubation with anti-mouse or anti-rabbit secondary antibody horseradish peroxidase conjugate obtained from Amersham Life Science Inc. and detected by chemiluminescence and autoradiography using XAR-5 film obtained from Eastman Kodak Co. (Rochester, N.Y., USA). […]
# [3] = test system: PI3K (p85), Akt (Ser473 and Thr308); experiment: Western blot, PI3K (p85) and phosphorylation of Akt in LNCaP cells; format: cell-based, human; settings: fisetin 10-60 μM, 48 h
# Method: as §1, §2
# [4] = test system: cdk2, cdk4 and cdk6; experiment: Western blot, cdks in LNCaP cells; format: cell-based, human; settings: fisetin 10-60 μM, 48 h
# Method: as §1, §2
# [5] = test system: cyclin D1, cyclin D2 and cyclin E; experiment: Western blot, cyclins in LNCaP cells; format: cell-based, human; settings: fisetin 10-60 μM, 48 h
# Method: as §1, §2
# [6] = test system: XIAP and Smac/DIABLO; experiment: Western blot, XIAP and Smac/DIABLO in LNCaP cells; format: cell-based, human; settings: fisetin 10-60 μM, 48 h
# Method: as §1, §2
# [7] = test system: PC-3 cells; experiment: MTT cell viability assay, PC-3 cells; format: cell-based; settings: Homo sapiens, read-out: decrease in cell viability; for cytotoxicity at 10 µM: PC-3, fisetin 10 μM; for cytotoxicity at 20 µM: PC-3, fisetin 20 μM; for cytotoxicity at 40 µM: PC-3, fisetin 40 μM; for cytotoxicity at 60 µM: PC-3, fisetin 60 μM
# Method: (§3) obtained from ATCC (Manassas, Va.). LNCaP cells were cultured in Dulbecco's Modified Eagle's medium supplemented with 5% heat-inactivated fetal bovine serum and 1% penicillin/streptomycin (P-S). CWR22Ru1 and PC-3 cells were grown in RPMI 1640 (Invitrogen) supplemented with 10% fetal bovine serum and 1% P-S. Human prostate epithelial cells (PrEC) were obtained from Cambrex Bioscience (Walkersville, Md.) and grown in prostate epithelial basal cell medium (Cambrex Bioscience) according to the manufacturer's instructions. The cells were maintained under standard cell culture conditions at 37° C. and 5% CO2 in a humid environment. Fisetin dissolved in dimethyl sulfoxide (final concentration 0.1% v/v) was used for the treatment of cells. The cells (60-70% confluent) were treated with fisetin (10-60 μM) for 24 and 48 h in complete growth medium.
# Cell viability. The effect of fisetin on the viability of cells was determined by 3-[4,5-dimethylthiazol-2-yl]-2,5-diphenyl tetrazoliumbromide assay. LNCaP, CWR22Ru1, PC-3 and PrEC cells were plated at 1×10^4 cells per well in 200 μl of complete culture medium containing 10-60 μM concentrations of fisetin in 96-well microtiter plates for 24 and 48 h. After incubation for specified times at 37° C. in a humidified incubator, 3-[4,5-dimethylthiazol-2-yl]-2,5-diphenyl tetrazoliumbromide (5 mg/ml in PBS) was added to each well and incubated for 2 h, after which the plate was centrifuged at 1,800×g for 5 min at 4° C. The absorbance was recorded on a microplate reader at the wavelength of 540 nm. The effect of fisetin on growth inhibition was assessed as percent cell viability where DMSO-treated cells were taken as 100% viable. DMSO at the concentrations used was without any effect on cell viability.
# [8] = test system: LNCaP cells; experiment: Apoptosis assessment by annexin-V staining; format: cell-based, human; settings: fisetin 10-60 μM, 48 h
# Method: Apoptosis assessment by annexin-V staining. The Annexin-V-Fluos staining kit was used for the detection of apoptotic cells according to vendor's protocol. This kit uses a staining protocol in which the apoptotic cells are stained with annexin-V (green fluorescence). The LNCaP cells were grown to 70% confluency and treated with fisetin (10-60 μM) for 48 h. The fluorescence was measured by a Zeiss 410 confocal microscope (Thornwood, N.Y.). Confocal images of green annexin-FITC fluorescence were collected using 488 nm excitation light from an argon/krypton laser, a 560 nm dichroic mirror and a 514-540 nm bandpass barrier filter.
# [9] = test system: PrEC cells; experiment: MTT cell viability assay, normal prostate epithelial (PrEC) cells; format: cell-based, human; settings: fisetin 10-60 μM
# Method: as §3
# Cell viability. The effect of fisetin on the viability of cells was determined by 3-[4,5-dimethylthiazol-2-yl]-2,5-diphenyl tetrazoliumbromide assay. […] The absorbance was recorded on a microplate reader at the wavelength of 540 nm. The effect of fisetin on growth inhibition was assessed as percent cell viability where DMSO-treated cells were taken as 100% viable. […]
# [10] = test system: Bax and Bcl-2; experiment: Western blot, Bax and Bcl-2 in LNCaP cells; format: cell-based, human; settings: fisetin 10-60 μM, 48 h
# Method: Protein extraction and western blotting. Following the treatment of LNCaP cells with fisetin (10-60 μM; 48 h), the media was aspirated, the cells were washed with cold PBS (pH 7.4), and ice-cold lysis buffer (50 mM Tris-HCl, 150 mM NaCl, 1 mM EGTA, 1 mM EDTA, 20 mM NaF, 100 mM Na3VO4, 0.5% NP-40, 1% Triton X-100, 1 mM PMSF (pH 7.4)) with freshly added protease inhibitor cocktail (Protease Inhibitor Cocktail Set III, Calbiochem, La Jolla, Calif.) over ice for 30 min. The cells were scraped and the lysate was collected in a microfuge tube and passed through a needle to break up the cell aggregates. The lysate was cleared by centrifugal ion al 14,000 g for 15 min at 4° C. and the supernatant (whole cell lysate) was used or immediately stored at […].
# For western blotting, 30-50 μg protein was resolved over 8-12% polyacrylamide gels and transferred to a nitrocellulose membrane. The blot was blocked in blocking buffer (5% nonfat dry milk/1% Tween 20; in 20 mM TBS, pH 7.6) for 1 hr at room temperature, incubated with appropriate monoclonal or polyclonal primary antibody in blocking buffer for 1.5 h to overnight at 4° C., followed by incubation with anti-mouse or anti-rabbit secondary antibody horseradish peroxidase conjugate obtained from Amersham Life Science Inc. and detected by chemiluminescence and autoradiography using XAR-5 film obtained from Eastman Kodak Co. (Rochester, N.Y., USA). Densitometric measurements of the band in Western blot analysis were performed using digitalized scientific software program UN-SCAN-IT (Silk Scientific Corporation. Orem, Utah.
structure (smiles),measurement,setting,value
"O=c1c(O)c(-c2ccc(O)c(O)c2)oc2cc(O)ccc12 [fisetin, 3,3′,4′,7-tetrahydroxyflavone]",apoptosis as compared to control,[1]; fisetin 10 μM,40%
same,apoptosis as compared to control,[1]; fisetin 20 μM,64%
same,apoptosis as compared to control,[1]; fisetin 40 μM,103%
same,apoptosis as compared to control,[1]; fisetin 60 μM,106%
same,protein expression of WAF1/p21 and KIP1/p27,[2],induction
same,expression of regulatory (p85) subunit of PI3K,[3],inhibition
same,phosphorylation of Akt at Ser473 and Thr308,[3],inhibited
same,"protein expression of cdk2, 4 and 6",[4],dose-dependent decrease
same,"protein expression of cyclins D1, D2 and E",[5],dose-dependent decrease
same,protein expression of Smac/DIABLO,[6],induction
same,protein expression of XIAP,[6],inhibition
same,cytotoxicity at 10 µM,[7]; 24 h,7%
same,cytotoxicity at 10 µM,[7]; 48 h,11%
same,cytotoxicity at 20 µM,[7]; 24 h,18%
same,cytotoxicity at 20 µM,[7]; 48 h,25%
same,cytotoxicity at 40 µM,[7]; 24 h,24%
same,cytotoxicity at 40 µM,[7]; 48 h,32%
same,cytotoxicity at 60 µM,[7]; 24 h,33%
same,cytotoxicity at 60 µM,[7]; 48 h,46%
same,apoptotic cells by annexin-V staining,[8],increased
same,effect on cell viability,[9]; 24 h,minimal effect
same,effect on cell viability,[9]; 48 h,minimal effect
same,protein expression of Bax,[10],significant increase
same,protein expression of Bcl-2,[10],significantly decreased
same,ratio of Bax to Bcl-2,[10],significant dose-dependent shift
